Results as given in patent publication US20070105847A1, “1,3-Dioxane derivatives and analogues thereof useful in the treatment of i.a. obesity and diabetes” (priority 2004, published 2007).

Legend:
[1] = system: Swiss albino mice; assay: Serum triglyceride and total cholesterol lowering activity in Swiss albino mice; type: in vivo; settings: male Swiss albino mice, oral, 10 mg/kg/day for 6 days, 1 hour after dosing on 6th day
Experimental: • i) Serum triglyceride and total cholesterol lowering activity in Swiss albino mice:
Male Swiss albino mice (SAM) were bred in Zydus animal house. All these animals were maintained under 12 hour light and dark cycle at 25±1° C. Animals were given standard laboratory chow (NIN, Hyderabad, India) and water ad libitum. SAM of 20-30 g body weight range was used. The protocol approved by Institutional Animal Ethics Committee is being used.
The test compounds were administered orally to Swiss albino mice at 0.001 to 50 mg/kg/day dose for 6 days. The compound was administered after suspending it in 0.25% CMC or dissolving it in water, when compound is water-soluble. Control mice were treated with vehicle (0.25% of Carboxymethylcellulose; dose 10 ml/kg).
The blood samples were collected on 0th day and in fed state 1 hour after drug administration on 6th day of the treatment. The blood was collected in non heparinised capillary and the serum was analyzed for triglyceride and total cholesterol (Wieland, O. Methods of Enzymatic analysis. Bergermeyer, H., O., Ed., 1963. 211-214; Trinder, P. Ann. Clin. Biochem. 1969. 6: 24-27). Measurement of serum triglyceride and total cholesterol was done using commercial kits (Zydus-Cadila, Pathline, Ahmedabad, India).
Percentage reduction in triglycerides/total cholesterol were calculated according to the formula: [formula]
OC=Zero day control group value OT=Zero day treated group value TC=Test day control group TT=Test day treated group

[2] = system: Hamster of Syrian golden stain; assay: Serum triglyceride and total cholesterol lowering activity in Hamster of Syrian golden strain on HF-HC diet; type: in vivo; settings: hamsters on HF-HC diet, po, 3 mg/kg/day for 15 days
Source text: ii) Surem triglyceride and total cholesterol lowering activity in Hamster of Syrian golden stain:
Male and Female Hamster of Syrian golden stain were bred in Zydus animal house. All these animals were maintained under 12-hour light and dark cycle at 22±3 degree C. The protocol approved by Institutional Animal Ethics Committee is being used. Two groups of animals were put on HF-HC (High fat and high cholesterol) diet for 14 days. On day 14 […] one group of animals of were put on normal diet for two weeks.
One group of animals on HF-HC diet were treated (po) with compounds of the present invention, at 0.001 to 50 mg/kg daily for 15 days while the other group received the vehicle. After 15 days blood samples. were be collected in non heparinized capillary from animals for determination of total cholesterol (TC), triglyceride (TG) (Wieland, O. Methods of Enzymatic analysis. Bergermeyer, H., O., Ed., 1963. 211-214; Trinder, P. Ann. Clin. Biochem. 1969. 6: 24-27). Measurement of serum triglyceride and total cholesterol was done using commercial kits (Pointe Scientific. Inc. USA.)
Percentage reduction in triglycerides/total cholesterol were calculated according to the formula:
• Percentage reduction (%)=(TT−TC)/TC*100
TC=Test day control group TT=Test day treated group.

Structure (SMILES) | % Triglyceride lowering [1] [%] | % Triglyceride lowering [2] [%]
CC1(C(=O)O)OCC(CCCCOc2ccc(Cc3ccccc3)cc2)CO1 (stereo not shown) [Example 38, 5-[4-(4-Benzyl-phenoxy)-butyl]-2-methyl-[1,3]dioxane-2-carboxylic acid] | 32 | –
CC1(C(=O)O)OCC(CCCCc2ccc(OCc3ccccc3)cc2)CO1 (stereo not shown) [Example 49, 5-[4-(4-Benzyloxy-phenyl)-butyl]-2-methyl-[1,3]dioxane-2-carboxylic acid] | 26 | –
CC1(C(=O)O)OCC(CCCCc2ccc(OS(C)(=O)=O)cc2)CO1 (stereo not shown) [Example 50, 5-[4-(4-Methanesulfonyloxy-phenyl)-butyl]-2-methyl-[1,3]dioxane-2-carboxylic acid] | 32 | 45
